# Reference: US20190133128A1, “Fungicidal pyridazinones” (FMC Corporation, priority 2017, published 2019)
# Marks after values point to notes of the source that are not given here.
# Legend:
# Format in all cases: in vivo
# Botrytis cinerea = experiment: Test C: preventive spray on tomato seedlings, gray mold, visual disease rating
# From the text: (§1) General protocol for preparing test solutions for Tests AG: the test compounds were first dissolved in acetone in an amount equal to 3% of the final volume and then suspended at the desired concentration (in ppm) in acetone and purified water (50/50 mix by volume) containing the surfactant PEG400 (polyhydric alcohol esters). The resulting test suspensions were then used in Tests AG. Compounds were sprayed at a concentration of 250 ppm or other indicated rate to the point of run-off on the test plants. The test solution was sprayed to the point of run-off on tomato seedlings. […] A dash (-) indicates no test results.
# Phytophthora infestans = experiment: whole plant or invertebrate; conditions: tomato seedlings
# [1] = tested on: Puccinia recondita f. sp. tritici; experiment: Test F: preventive spray on wheat seedlings, wheat leaf rust, visual disease rating
# From the text: as §1, with “wheat” for “tomato”, “seedlings. The following day the seedlings were inoculated with a spore suspension of Puccinia recondita f. sp. tritici;” for “seedlings.”
# [2] = tested on: Erysiphe graminis f. sp. tritici; experiment: Test G: preventive spray on wheat seedlings, wheat powdery mildew, visual disease rating
# From the text: as §1, with “wheat” for “tomato”
# Zymoseptoria tritici = experiment: Test E: preventive spray on wheat seedlings, wheat leaf blotch, visual disease rating
# From the text: as §1, with “wheat” for “tomato”
# Phakopsora pachyrhizi = experiment: Test A: preventive spray on soybean seedlings, Asian soybean rust, visual disease rating; conditions: 250 ppm, 100 = 100% disease control, 0 = no control
# [3] = 250 ppm, 100 = 100% disease control, 0 = no control
Structure (SMILES),Test C disease control rating (Botrytis cinerea; 200 ppm),Test D disease control rating (Phytophthora infestans; 200 ppm),Test F disease control rating ([1]; 200 ppm),Test G disease control rating ([2]; 200 ppm),Test C disease control rating (Botrytis cinerea; [3]),Test D disease control rating (Phytophthora infestans; [3]),"Test F disease control rating [1, 3]","Test G disease control rating [2, 3]",other results
Cn1ncc(O)c(C(=O)Nc2ccc3c(c2)OC(F)(F)O3)c1=O [Compound 1],0%,0%,98%,40%,,,,,
Cc1nn(C)c(=O)c(C(=O)Nc2ccc(OC(F)(F)F)cc2)c1O [Compound 3],0%,0%,0%,37%,,,,,Test E disease control rating (Zymoseptoria tritici; 200 ppm): 0%
CCCn1ncc(O)c(C(=O)Nc2ccc(OC(F)(F)F)cc2)c1=O [Compound 4],0%,99%,95%,97%,,,,,Test E disease control rating (Zymoseptoria tritici; 200 ppm): 0%
CCn1ncc(O)c(C(=O)Nc2ccc(OC(F)(F)F)cc2)c1=O [Compound 5],10%,50%,84%,32%,,,,,Test E disease control rating (Zymoseptoria tritici; 200 ppm): 0%
COc1cnn(C)c(=O)c1C(=O)Nc1ccc(Cl)cc1 [Compound 8],0%,0%,0%,0%,,,,,
Cn1ncc(O)c(C(=O)Nc2ccc(Cl)cc2)c1=O [Compound 9],0%,0%,99%,96%,,,,,
Cn1ncc(O)c(C(=O)Nc2ccccc2Cl)c1=O [Compound 10],99%,0%,97%,0%,,,,,
Cn1ncc(O)c(C(=O)Nc2cccc(Cl)c2)c1=O [Compound 11],48%,0%,95%,31%,,,,,
CCn1ncc(O)c(C(=O)Nc2ccc(Cl)nc2)c1=O [Compound 12],,0%,91%,93%,,,,,
O=C(Nc1ccc(Cl)nc1)c1c(O)cnn(-c2ccccc2)c1=O [Compound 14],90%,0%,98%,0%,,,,,
Cn1ncc(O)c(C(=O)Nc2cccc(C#N)c2)c1=O [Compound 15],16%,79%,91%,0%,,,,,
Cc1cc(Cl)ccc1NC(=O)c1c(O)cnn(C)c1=O [Compound 16],0%,91%,99%,45%,,,,,
Cn1ncc(O)c(C(=O)Nc2ccc(Cl)c(Cl)c2)c1=O [Compound 17],0%,57%,99%,0%,,,,,
Cn1ncc(O)c(C(=O)Nc2ccc(Cl)c(C(F)(F)F)c2)c1=O [Compound 18],0%,0%,83%,46%,,,,,
Cn1ncc(O)c(C(=O)Nc2cccc3cccnc23)c1=O [Compound 19],0%,0%,96%,0%,,,,,
Cn1ncc(O)c(C(=O)Nc2c(F)cccc2F)c1=O [Compound 20],0%,0%,0%,0%,,,,,
Cn1ncc(O)c(C(=O)NCc2ccc(Cl)cc2)c1=O [Compound 22],,,,,,,,,Test C disease control rating (Botrytis cinerea; 40 ppm): 0%; Test D disease control rating (Phytophthora infestans; 40 ppm): 0%; Test F disease control rating ([1]; 40 ppm): 41%; Test G disease control rating ([2]; 40 ppm): 0%
CN(C(=O)c1c(O)cnn(C)c1=O)c1ccc(Cl)cc1 [Compound 23],,,,,,,,,Test C disease control rating (Botrytis cinerea; 40 ppm): 0%; Test D disease control rating (Phytophthora infestans; 40 ppm): 0%; Test F disease control rating ([1]; 40 ppm): 0%; Test G disease control rating ([2]; 40 ppm): 0%
Cn1ncc(O)c(C(=O)Nc2ccc(Cl)cc2C#N)c1=O [Compound 24],99%,0%,91%,0%,,,,,
Cn1ncc(O)c(C(=O)Nc2cccc(F)c2)c1=O [Compound 25],0%,0* %,89%,0%,,,,,
Cn1ncc(O)c(C(=O)Nc2ccccc2-c2cc(F)c(F)c(F)c2)c1=O [Compound 27],,,,,0%,0%,98%,0%,Test A disease control rating (Phakopsora pachyrhizi): 0%; Test E disease control rating (Zymoseptoria tritici; [3]): 0%
Cn1ncc(O)c(C(=O)Nc2ccccc2-c2ccc(Cl)cc2)c1=O [Compound 28],,,,,0%,0%,97%,27%,Test A disease control rating (Phakopsora pachyrhizi): 0%; Test E disease control rating (Zymoseptoria tritici; [3]): 0%
COc1ccc(NC(=O)c2c(Cl)cnn(C)c2=O)cc1 [Compound 30],,,,,0%,0%,96%,0%,Test A disease control rating (Phakopsora pachyrhizi): 60%; Test E disease control rating (Zymoseptoria tritici; [3]): 0%
Cc1ccc(NC(=O)c2c(Cl)cnn(C)c2=O)cc1 [Compound 31],,,,,92%,0%,95%,0%,Test A disease control rating (Phakopsora pachyrhizi): 65%; Test E disease control rating (Zymoseptoria tritici; [3]): 0%
Cn1ncc(Cl)c(C(=O)Nc2ccccc2-c2ccc(F)c(F)c2F)c1=O [Compound 32],,,,,0%,0%,96%,0%,Test A disease control rating (Phakopsora pachyrhizi): 94%; Test E disease control rating (Zymoseptoria tritici; [3]): 0%
Cn1ncc(O)c(C(=O)Nc2ccc(OC(F)(F)F)cc2F)c1=O [Compound 48],,,,,62%,97%,99%,97%,Test E disease control rating (Zymoseptoria tritici; [3]): 96%
Cn1ncc(OS(C)(=O)=O)c(C(=O)Nc2ccc(C(F)(F)F)nc2)c1=O [Compound 94],,,,,0%,0%,99%,52%,Test A disease control rating (Phakopsora pachyrhizi): 77%
Cn1ncc(OS(C)(=O)=O)c(C(=O)Nc2ncc(Cl)cn2)c1=O [Compound 95],,,,,0%,0%,68%,0%,Test A disease control rating (Phakopsora pachyrhizi): 73%
Cn1ncc(OS(=O)(=O)c2ccccc2)c(C(=O)Nc2ccc(OC(F)(F)F)cc2)c1=O [Compound 107],,,,,0%,96%,100%,98%,Test E disease control rating (Zymoseptoria tritici; [3]): 71%
